# Reference: patent US20100062517A1, “In situ production of microbial pigments for metal and actinide immobilization” (priority 2008, published 2010)
# What was measured:
# 4-HPPD = test: Pigment production in pure cultures of soil isolates with sulcotrione; type: cell-based, soil isolates (bacteria); details: sulcotrione 18 μM, LBSM with tyrosine 1 g/l, absorbance 400 nm, relative to no inhibitor
# Excerpt: Initial characterization of pigment included intensity of coloration and diffusion through agar media. Dark black non-diffusive pigments are indicative of DOPA melanin whereas reddish brown diffusive pigments are more likely pyomelanin. The chemical sulcotrione (Zeneca Agrochemicals) was used as a specific competitive inhibitor of 4-HPPD, the enzyme required for pyomelanin production. Methods incorporated sulcotrione to determine if pigment production was a result of 4-HPPD. Pure cultures of soil isolates were grown in LBSM and tyrosine (1 g/l) was supplemented to promote pigment production. Sulcotrione (18 μM) was added prior to pigmentation in order to differentiate pyomelanin production from other pigments that may be produced. Pigment production was quantified spectrophotometrically (400 nm) in cell free culture fluid. Controls for comparison were without tyrosine or without sulcotrione.
# Tims Branch soil = test: Field soil columns treated with tyrosine; parameters: species or system indigenous soil bacteria
# Description: Additionally, the following soil properties were analyzed: percent organic matter by loss-on-ignition at a temperature of 375° C. and pH was determined from a 1:1 mineral/water equilibration solution. Also, total concentration of U in a homogenized soil sample was determined by a total microwave digestion of 0.6 g of homogenized soil material with concentrated acids (10 ml of HNO3, 4 ml of H2SO4, and 2 ml of HCl). The resulting extract solution was analyzed by ICP-MS. Changes in the organic content of soils due to pyomelanin production were also determined by spectrophotometric absorbance (400 nm) of particle free supernatants and Fourier transform infrared (FTIR) spectroscopy. Soil samples were removed (5-10 g/column) 28 days after treatment addition for pore water analysis. Optical density was determined for centrifuged soil to determine the degree of pigmentation resulting from tyrosine amendments. Dried pigments from soil effluents (60° C.) were then further characterized using FTIR spectroscopy and compared to that of pure tyrosine and dihydroxyphenylalanine (DOPA) melanin (Aldrich Chemicals). […] All samples were analyzed using a ThermoElectron Smart Orbit diamond single bounce attenuated total reflectance accessory. […] During field incubation rainfall was measured at 12.1 cm. […] Samples were processed the next day and analyzed for metals and pH.
SMILES,Pigment production in bacterial cultures (4-HPPD),"U in pore water compared to controls (Tims Branch soil; 30 days after treatment, 10, 30 and 50 cm depths)",Duration of U immobilization (Tims Branch soil; one-time addition of tyrosine to soil)
CS(=O)(=O)c1ccc(C(=O)C2C(=O)CCCC2=O)c(Cl)c1 [sulcotrione],halted,,
N[C@@H](Cc1ccc(O)cc1)C(=O)O [tyrosine],,significantly decreased,at least 13 months
